Data as given in patent US7671085B2, “Non-steroidal farnesoid X receptor modulators and methods for the use thereof” (The Salk Institute for Biological Studies, priority 2002, dated 2010).
“Also recorded” adds a separate entry of the source.

Assays:
FXR = target: T1, FXR (Homo sapiens, UniProt Q96RI1); assay: cell-based FXR transcription assay, FXR responsive promoter linked to luciferase reporter; details: for RE^a: cell-based FXR reporter assay, footnote a not given; for FXR activation, in words: cell-based reporter assay, SAR discussion
T1 construct: using a full length FXR on a natural response element; expressed in transfected cells
T1 sequence (Q96RI1 1-486): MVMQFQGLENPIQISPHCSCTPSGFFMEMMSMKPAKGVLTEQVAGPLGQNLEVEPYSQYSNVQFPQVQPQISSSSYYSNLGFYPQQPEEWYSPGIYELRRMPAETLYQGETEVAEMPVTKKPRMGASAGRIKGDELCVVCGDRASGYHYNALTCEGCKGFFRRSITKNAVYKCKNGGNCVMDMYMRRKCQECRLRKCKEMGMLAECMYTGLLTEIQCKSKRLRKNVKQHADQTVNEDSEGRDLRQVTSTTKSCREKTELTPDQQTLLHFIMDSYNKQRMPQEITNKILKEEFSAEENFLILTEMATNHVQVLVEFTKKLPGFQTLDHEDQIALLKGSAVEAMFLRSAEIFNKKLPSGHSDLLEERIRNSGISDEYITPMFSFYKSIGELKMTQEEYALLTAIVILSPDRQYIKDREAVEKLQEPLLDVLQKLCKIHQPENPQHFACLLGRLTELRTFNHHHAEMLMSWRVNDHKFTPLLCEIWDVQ
Procedure, shortened: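 Cells co-transfected with full-length FXR and a luciferase reporter driven by a natural response element on a minimal promoter. Compound exposure ≈10 μM for 18 h before washing and luciferase read-out, in 384-well format, with CDCA as reference activator. EC50 derived from transcriptional activity.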

[1] = target: T2, FXR ligand-binding domain (Homo sapiens, UniProt Q96RI1); assay: FRET-based coactivator binding assay (SRC-1 peptide recruitment); assay type: biochemical
T2 sequence (Q96RI1 262-486 limits assumed): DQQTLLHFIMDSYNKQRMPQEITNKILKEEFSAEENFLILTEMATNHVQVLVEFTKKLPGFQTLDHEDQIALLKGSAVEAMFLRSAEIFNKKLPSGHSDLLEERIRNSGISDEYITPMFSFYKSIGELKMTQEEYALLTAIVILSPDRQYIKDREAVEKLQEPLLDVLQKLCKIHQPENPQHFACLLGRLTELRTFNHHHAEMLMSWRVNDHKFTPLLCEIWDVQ
Text: To determine if the compounds identified as ligands could promote the association of FXR with co-activators in vitro, a fluorescence resonance energy transfer (FRET)-based coactivator binding assay was employed (see, for example, Makishima et al. (1999), supra, Urizar et al. (2002). A natural product that lowers cholesterol as an antagonist ligand for FXR. Science. 296(5573), 1703-6). This assay relies on an agonist-induced interaction between the nuclear receptor and its coactivator bringing two fluorogenic partners together resulting in the nuclear receptor ligand-dependent FRET.

[2] = test system: FXR (IBABP, PLTP and MRP-2 promoters); assay: transient transfection cell-based assay with natural promoters of FXR targets (IBABP, PLTP, MRP-2)
Text: For this study, the following gene promoters were used: intestinal bile acid binding protein (IBABP; see, for example, Grober et al. (1999). Identification of a bile acid-responsive element in the human ileal bile acid-binding protein gene. Involvement of the farnesoid X receptor/9-cis-retinoic acid receptor heterodimer. J Biol Chem. 274(42), 29749-54), phospholipid transfer protein (PLTP) (Urizar et al (2000). The farnesoid X-activated receptor mediates bile acid activation of phospholipid transfer protein gene expression. J Biol Chem. 275(50), 39313-7) and multidrug resistance related protein 2 (MRP-2) (Kast et al. (2002), supra), which are all well characterized targets of FXR. The natural promoters of both the IBABP and PLTP genes contain one copy of an inverted repeat with a one base spacing (IR-1) while MRP-2 contains an ER-8 element. […] The most robust activation (28-fold) was seen on the IBABP promoter. Less robust (2-3 fold) but specific activation was observed on the PLTP and MRP-2 promoters.

[3] = test system: FXR target genes SHP, MRP-2, BSEP and PLTP; assay: Northern blot of FXR target genes in HEPG2-FXR cells; assay type: cell-based; details: for induction of FXR target genes, in words: SHP, MRP-2, BSEP, PLTP; for concentration for maximal activation of FXR target genes: overnight treatment
Experimental: HepG2 or HT29-derived cell lines were typically cultured in medium containing superstripped FBS for 24 hr before the addition of a ligand or DMSO (vehicle) for an additional 24-48 hr. Total RNA was isolated using TRIzol reagent and was resolved (10 μg/lane) on a 1% agarose, 2.2 M formaldehyde gel, transferred to a nylon membrane (Hybond N^+; Amersham Biosciences, Inc.), and cross-linked to the membrane with UV light.
cDNA probes were radiolabeled with [α-^32P]dCTP using the highprime labeling kit (Amersham Biosciences, Inc.). Membranes were hybridized using the QuikHyb hybridization solution (Stratagene, La Jolla, Calif.) according to the manufacturer's protocol. Blots were normalized for variations of RNA loading by hybridization to a control probe, either, 18 S ribosomal cDNA, or the ribosomal protein 36B4. The RNA levels were quantitated using a PhosphorImager (ImageQuant software; Molecular Dynamics, Inc., Sunnyvale, Calif.) in addition to being exposed to X-ray film.
Total RNA was isolated and the expression of the FXR target genes SHP, MRP-2, BSEP and PLTP was measured by Northern blot analysis. […]

Structure (SMILES)	RE^a (FXR)	FXR activation, in words (FXR)	EC50 [1] [µM]	concentration of maximum efficacy [2] [µM]	induction of FXR target genes, in words [3]	concentration for maximal activation of FXR target genes [3] [µM]	induction of FXR target genes, in words ([3]; listed as fexaramine)
COC(=O)C=Cc1cccc(N(Cc2ccc(C=Cc3ccccc3)cc2)C(=O)C2CCCCC2)c1 [Compound 121]	1.55	excellent activity; also recorded: among the most active	~0.255	1	strong induction	10	–
COC(=O)/C=C/c1cccc(N(Cc2ccc(-c3ccc4c(c3)OCO4)cc2)C(=O)C2CCCCC2)c1 [Compound 244]	1.90	excellent activity	0.222	1	strong induction	10	–
COC(=O)/C=C/c1cccc(N(Cc2ccc(-c3ccc(N(C)C)cc3)cc2)C(=O)C2CCCCC2)c1 [Compound 259]	1.72	excellent activity	0.255	1	–	10	most effective inducer of target genes; also recorded: matched GW4064 induced activation of the BSEP and MRP-2 genes
